Laboratory results published in patent US12522607B2, “Substituted pyrazolo[3,4-d]pyrimidines as wee-1 inhibitors” (WIGEN BIOMEDICINE TECHNOLOGY (SHANGHAI) CO., LTD., priority 2020, dated 2026).

Tests used:
Wee-1 kinase = target: T1, Wee-1 kinase (Homo sapiens, UniProt P30291); experiment: Inhibitory activity against Wee-1 kinase (Lanthra Screen Wee-1 kinase kit, Tracer 178); format: binding; details: Wee-1 kinase 5 nM, Tracer 178 50 nM, 1 h room temperature
T1 construct: purchased Invitrogen
In short: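 LanthaScreen binding format: Wee-1 kinase (5 nM final) with Eu-anti-GST antibody (2 nM final) and kinase Tracer 178 (50 nM final), compounds serially diluted in DMSO. 1 h at room temperature before reading. IC50 relative to DMSO control.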

HT29 cells = experiment: Antiproliferative activity against HT29 cells (Cell Titer-Lumi, ATP content); format: cell-based; details: Homo sapiens, HT-29, 72 after compound addition, read-out: HT-29 cells Anti-proliferative activity (IC50 for the inhibition against HT-29 cell growth)
In short: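 3000 cells per well, allowed to adhere overnight, then exposed to a gradient dilution of compound for 72 (units as printed). Cellular ATP read by luminescence (Cell Titer-Lumi) as a growth measure; IC50 for growth inhibition calculated.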

T1 sequence (P30291 whole entry): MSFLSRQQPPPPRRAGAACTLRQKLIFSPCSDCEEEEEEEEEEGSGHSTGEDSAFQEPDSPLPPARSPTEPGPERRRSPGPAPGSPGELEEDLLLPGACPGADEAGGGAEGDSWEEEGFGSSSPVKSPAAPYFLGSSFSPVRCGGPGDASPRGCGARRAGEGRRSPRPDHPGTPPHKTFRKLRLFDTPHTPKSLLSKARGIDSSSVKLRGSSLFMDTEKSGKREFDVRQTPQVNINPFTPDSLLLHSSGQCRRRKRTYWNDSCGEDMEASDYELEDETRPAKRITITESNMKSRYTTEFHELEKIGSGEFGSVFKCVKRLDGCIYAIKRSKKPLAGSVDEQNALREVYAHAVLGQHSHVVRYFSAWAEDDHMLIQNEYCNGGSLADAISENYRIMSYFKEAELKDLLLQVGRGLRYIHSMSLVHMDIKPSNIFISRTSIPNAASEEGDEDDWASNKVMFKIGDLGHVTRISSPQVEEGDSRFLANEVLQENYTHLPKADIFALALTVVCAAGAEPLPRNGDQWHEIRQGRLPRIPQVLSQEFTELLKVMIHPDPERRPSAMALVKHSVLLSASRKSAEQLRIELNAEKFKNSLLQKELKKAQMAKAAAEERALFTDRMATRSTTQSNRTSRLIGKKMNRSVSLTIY

Compound	IC50 (Wee-1 kinase)	IC50 (HT29 cells)
C=CCn1c(=O)c2cnc(Nc3cc(N4CCN(C)CC4)c4ccn(C)c4c3)nc2n1-c1ccc(=O)n(C(C)C)n1 [Compound 255]	≤ 30 nM	≤ 1000 nM
C=CCn1c(=O)c2cnc(Nc3cc(N4CCN(C(C)C)CC4)c4ccn(C)c4c3)nc2n1-c1ccc(=O)n(C(C)C)n1 [Compound 256]	≤ 30 nM	≤ 1000 nM
C=CCn1c(=O)c2cnc(Nc3cc(N4CCC(N(C)C)CC4)c4ccn(C)c4c3)nc2n1-c1ccc(=O)n(C(C)C)n1 [Compound 257]	≤ 30 nM	≤ 1000 nM
C=CCn1c(=O)c2cnc(Nc3cc(N4CCN(C)CC4)c4ccn(C5CC5)c4c3)nc2n1-c1ccc(=O)n(C(C)C)n1 [Compound 258]	≤ 30 nM	≤ 1000 nM
C=CCn1c(=O)c2cnc(Nc3cc(N4CCN(C(C)C)CC4)c4ccn(C5CC5)c4c3)nc2n1-c1ccc(=O)n(C(C)C)n1 [Compound 259]	≤ 30 nM	≤ 1000 nM
C=CCn1c(=O)c2cnc(Nc3cc(N4CCC(N(C)C)CC4)c4ccn(C5CC5)c4c3)nc2n1-c1ccc(=O)n(C(C)C)n1 [Compound 260]	≤ 30 nM	≤ 1000 nM
C=CCn1c(=O)c2cnc(Nc3ccc4c(N5CCN(C)CC5)c[nH]c4c3)nc2n1-c1ccc(=O)n(C(C)C)n1 [Compound 261]	≤ 30 nM	≤ 1000 nM
C=CCn1c(=O)c2cnc(Nc3ccc4c(N5CCN(C(C)C)CC5)c[nH]c4c3)nc2n1-c1ccc(=O)n(C(C)C)n1 [Compound 262]	≤ 30 nM	≤ 1000 nM
C=CCn1c(=O)c2cnc(Nc3ccc4c(N5CCC(N(C)C)CC5)c[nH]c4c3)nc2n1-c1ccc(=O)n(C(C)C)n1 [Compound 263]	≤ 30 nM	≤ 1000 nM
C=CCn1c(=O)c2cnc(Nc3ccc4c(N5CCN(C)CC5)cn(C)c4c3)nc2n1-c1ccc(=O)n(C(C)C)n1 [Compound 264]	≤ 30 nM	≤ 1000 nM
C=CCn1c(=O)c2cnc(Nc3ccc4c(N5CCN(C(C)C)CC5)cn(C)c4c3)nc2n1-c1ccc(=O)n(C(C)C)n1 [Compound 265]	≤ 30 nM	≤ 1000 nM
C=CCn1c(=O)c2cnc(Nc3ccc4c(N5CCC(N(C)C)CC5)cn(C)c4c3)nc2n1-c1ccc(=O)n(C(C)C)n1 [Compound 266]	≤ 30 nM	≤ 1000 nM
C=CCn1c(=O)c2cnc(Nc3ccc4c(C5CCN(C)CC5)c[nH]c4c3)nc2n1-c1ccc(=O)n(C(C)C)n1 [Compound 267]	≤ 30 nM	≤ 1000 nM
C=CCn1c(=O)c2cnc(Nc3ccc4c(C5CCN(C(C)C)CC5)cn(C)c4c3)nc2n1-c1ccc(=O)n(C(C)C)n1 [Compound 268]	≤ 30 nM	≤ 1000 nM
C=CCn1c(=O)c2cnc(Nc3ccc4c(ccn4C4CCNCC4)c3)nc2n1-c1ccc(=O)n(C(C)C)n1 [Compound 269]	≤ 30 nM	≤ 1000 nM
C=CCn1c(=O)c2cnc(Nc3ccc4c(ccn4C4CCN(C)CC4)c3)nc2n1-c1ccc(=O)n(C(C)C)n1 [Compound 270]	≤ 30 nM	≤ 1000 nM
C=CCn1c(=O)c2cnc(Nc3ccc4c(ccn4C4CCN(C(C)C)CC4)c3)nc2n1-c1ccc(=O)n(C(C)C)n1 [Compound 271]	≤ 30 nM	≤ 1000 nM
Cc1cc(Nc2ncc3c(=O)n(C4CC4)n(-c4ccc(=O)n(C(C)C)n4)c3n2)ccc1N1CCN(C)CC1 [Compound 272]	≤ 30 nM	≤ 1000 nM
Cc1cc(Nc2ncc3c(=O)n(C4CC4)n(-c4ccc(=O)n(C(C)C)n4)c3n2)ccc1C1CCN(C)CC1 [Compound 273]	≤ 30 nM	≤ 1000 nM
CC(C)n1nc(-n2c3nc(Nc4ccc5c(c4)CN(C)CC54CC4)ncc3c(=O)n2C2CC2)ccc1=O [Compound 274]	≤ 30 nM	≤ 1000 nM
CCn1c(=O)c2cnc(Nc3ccc(N4CCN(C)CC4)c(C)c3)nc2n1-c1ccc(=O)n(C(C)C)n1 [Compound 275]	≤ 30 nM	≤ 1000 nM
CCn1c(=O)c2cnc(Nc3ccc(C4CCN(C)CC4)c(C)c3)nc2n1-c1ccc(=O)n(C(C)C)n1 [Compound 276]	≤ 30 nM	≤ 1000 nM
